Experimental data published in patent US20220306695A1, “COMPSTATIN ANALOGUES AND THEIR MEDICAL USES” (priority 2019, published 2022).
Starred links: 1 amine or outer side, 2 acyl side, 3 side chain; linkers in the order of their positions; H or OH if unused. Positions of bridges follow the written chain, without caps; N, C: chain ends. Non-standard residues stand in square brackets, D forms with d. Residues, ends and D or L forms follow the SMILES beside them. Groups on a side chain read outwards from the residue. *: point of attachment. Trp(1-Me) = Cn1cc(C[C@H](N)C(=O)O)c2ccccc21; C16 diacid = O=C(O)CCCCCCCCCCCCCCC(=O)*; γGlu = O=C(O)[C@H](CCC(=O)[*:2])N[*:1]; AEEA = NCCOCCOCC(=O)O; Sar = CNCC(=O)O

Tested on: classical complement pathway
Assay: In vitro haemolysis assay (inhibition of classical complement pathway)
Format: cell-based, human
Conditions: Table 3; human serum, sensitized sheep red blood cells; read-out: IC50[nM], in vitro analysis of inhibition of hemolysis
Outline: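 Serially diluted compound (9 points) was preincubated 15 min at room temperature with diluted human serum, titrated per batch to give 70-90% maximal haemolysis, in Tris/casein buffer pH 7.4 with Mg2+/Ca2+. Antibody-sensitized sheep erythrocytes were then added for 30 min at 37° C, and the reaction was stopped with EDTA. Haemolysis was read at A405, with IC50 from 4PL fit.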

| Compound | IC50 |
| --- | --- |
| CC[C@H](C)[C@@H]1NC(=O)[C@@H](NC(=O)[C@H](Cc2ccccc2)NC(=O)[C@H](CCC(=O)O)NC(=O)[C@H](CO)NC(C)=O)CSSC[C@@H](C(=O)N(C)CC(=O)N[C@@H](CCC(=O)O)C(=O)N[C@@H](C)C(N)=O)NC(=O)[C@H](CCCNC(=N)N)NC(=O)[C@H](Cc2c[nH]cn2)NC(=O)[C@H](CCC(=O)O)NC(=O)CNC(=O)[C@H](Cc2c[nH]c3ccccc23)NC(=O)[C@H](CCC(=O)O)NC(=O)[C@H](CCC(N)=O)NC(=O)[C@H](Cc2cn(C)c3ccccc23)NC1=O [Compound 83] (Ac-SEFCI[Trp(1-Me)]QEWGEHRC[Sar]EA-NH2; disulfide 4-14) | < 100 nM |
| CC[C@H](C)[C@@H]1NC(=O)[C@@H](NC(=O)[C@H](Cc2ccccc2)NC(=O)[C@H](CCC(=O)O)NC(=O)[C@H](CO)NC(C)=O)CSSC[C@@H](C(=O)N[C@@H](CO)C(=O)N[C@@H](CCC(=O)O)C(=O)N[C@@H](C)C(N)=O)NC(=O)[C@H](CCCNC(=N)N)NC(=O)[C@H](Cc2c[nH]cn2)NC(=O)[C@H](CCC(=O)O)NC(=O)CNC(=O)[C@H](Cc2c[nH]c3ccccc23)NC(=O)[C@H](CC(=O)O)NC(=O)[C@H](CCC(N)=O)NC(=O)[C@H](Cc2cn(C)c3ccccc23)NC1=O [Compound 84] (Ac-SEFCI[Trp(1-Me)]QDWGEHRCSEA-NH2; disulfide 4-14) | < 100 nM |
| CC[C@H](C)[C@@H]1NC(=O)[C@@H](NC(=O)[C@H](Cc2ccccc2)NC(=O)[C@H](CCC(=O)O)NC(C)=O)CSSC[C@@H](C(=O)N[C@@H](CCC(=O)O)C(=O)N[C@@H](CO)C(N)=O)NC(=O)[C@H](CCCNC(=N)N)NC(=O)[C@H](Cc2c[nH]cn2)NC(=O)[C@H](CCC(=O)O)NC(=O)CNC(=O)[C@H](Cc2c[nH]c3ccccc23)NC(=O)[C@H](CC(=O)O)NC(=O)[C@H](CCC(N)=O)NC(=O)[C@H](Cc2cn(C)c3ccccc23)NC1=O [Compound 85] (Ac-EFCI[Trp(1-Me)]QDWGEHRCES-NH2; disulfide 3-13) | < 100 nM |
| CC[C@H](C)[C@@H]1NC(=O)[C@@H](NC(=O)[C@H](Cc2ccccc2)NC(=O)[C@H](CCC(=O)O)NC(=O)[C@H](CO)NC(C)=O)CSSC[C@@H](C(=O)N(C)CC(=O)N[C@@H](CCC(=O)O)C(=O)N[C@@H](C)C(N)=O)NC(=O)[C@H](CCCCN)NC(=O)[C@H](Cc2c[nH]cn2)NC(=O)[C@H](CCC(=O)O)NC(=O)CNC(=O)[C@H](Cc2c[nH]c3ccccc23)NC(=O)[C@H](CC(=O)O)NC(=O)[C@H](CCC(N)=O)NC(=O)[C@H](Cc2cn(C)c3ccccc23)NC1=O [Compound 86] (Ac-SEFCI[Trp(1-Me)]QDWGEHKC[Sar]EA-NH2; disulfide 4-14) | < 100 nM |
| CC[C@H](C)[C@@H]1NC(=O)[C@@H](NC(=O)[C@H](Cc2ccccc2)NC(=O)[C@H](CCC(=O)O)NC(=O)CNC(C)=O)CSSC[C@@H](C(=O)N(C)CC(=O)N[C@@H](CCC(=O)O)C(=O)N[C@@H](C)C(N)=O)NC(=O)[C@H](CCCNC(=N)N)NC(=O)[C@H](Cc2c[nH]cn2)NC(=O)[C@H](CCC(=O)O)NC(=O)CNC(=O)[C@H](Cc2c[nH]c3ccccc23)NC(=O)[C@H](CC(=O)O)NC(=O)[C@H](CCC(N)=O)NC(=O)[C@H](Cc2cn(C)c3ccccc23)NC1=O [Compound 87] (Ac-GEFCI[Trp(1-Me)]QDWGEHRC[Sar]EA-NH2; disulfide 4-14) | < 100 nM |
| CC[C@H](C)[C@@H]1NC(=O)[C@@H](NC(=O)CN(C)C(=O)[C@H](CCC(=O)O)NC(=O)CNC(C)=O)CSSC[C@@H](C(=O)N[C@H](C(=O)N[C@@H](CCC(=O)O)C(=O)N[C@@H](C)C(N)=O)[C@@H](C)O)NC(=O)[C@H](CCCNC(=N)N)NC(=O)[C@H](Cc2c[nH]cn2)NC(=O)[C@H](CCC(=O)O)NC(=O)CNC(=O)[C@H](Cc2c[nH]c3ccccc23)NC(=O)[C@H](CC(=O)O)NC(=O)[C@H](CCC(N)=O)NC(=O)[C@H](Cc2cn(C)c3ccccc23)NC1=O [Compound 88] (Ac-GE[Sar]CI[Trp(1-Me)]QDWGEHRCTEA-NH2; disulfide 4-14) | < 100 nM |
| CC[C@H](C)[C@@H]1NC(=O)[C@@H](NC(=O)CN(C)C(=O)[C@H](CCC(=O)O)NC(=O)[C@H](CO)NC(C)=O)CSSC[C@@H](C(=O)N[C@H](C(=O)N[C@@H](CCC(=O)O)C(=O)N[C@@H](C)C(N)=O)[C@@H](C)O)NC(=O)[C@H](CCCNC(=N)N)NC(=O)[C@H](Cc2c[nH]cn2)NC(=O)[C@H](CCC(=O)O)NC(=O)CN(C)C(=O)[C@H](Cc2c[nH]c3ccccc23)NC(=O)[C@H](CCC(=O)O)NC(=O)[C@H](CCC(N)=O)NC(=O)[C@H](Cc2cn(C)c3ccccc23)NC1=O [Compound 89, Ac-SE[Sar]C(1)I[1-Me-Trp]QEW[Sar]EHRC(1)TEA-NH2] (Ac-SE[Sar]CI[Trp(1-Me)]QEW[Sar]EHRCTEA-NH2; disulfide 4-14) | < 100 nM |
| CC[C@H](C)[C@@H]1NC(=O)[C@@H](NC(=O)CN(C)C(=O)[C@H](CCC(=O)O)NC(=O)[C@H](CO)NC(C)=O)CSSC[C@@H](C(=O)N(C)CC(=O)N[C@@H](CCC(=O)O)C(=O)N[C@@H](C)C(N)=O)NC(=O)[C@H](CCCNC(=N)N)NC(=O)[C@H](Cc2c[nH]cn2)NC(=O)[C@H](CCC(=O)O)NC(=O)CNC(=O)[C@H](Cc2c[nH]c3ccccc23)NC(=O)[C@H](CCC(=O)O)NC(=O)[C@H](CCC(N)=O)NC(=O)[C@H](Cc2cn(C)c3ccccc23)NC1=O [Compound 90] (Ac-SE[Sar]CI[Trp(1-Me)]QEWGEHRC[Sar]EA-NH2; disulfide 4-14) | < 250 nM |
| CC[C@H](C)[C@@H]1NC(=O)[C@@H](NC(=O)CN(C)C(=O)[C@H](N)Cc2ccc(O)cc2)CSSC[C@@H](C(=O)N[C@H](C(=O)N[C@@H](CCC(=O)O)C(=O)N[C@@H](C)C(N)=O)[C@@H](C)O)NC(=O)[C@H](CCCNC(=N)N)NC(=O)[C@H](Cc2c[nH]cn2)NC(=O)[C@H](CCC(=O)O)NC(=O)CNC(=O)[C@H](Cc2c[nH]c3ccccc23)NC(=O)[C@H](CC(=O)O)NC(=O)[C@H](CCC(N)=O)NC(=O)[C@H](Cc2cn(C)c3ccccc23)NC1=O [Compound 91] (H-[dY][Sar]CI[Trp(1-Me)]QDWGEHRCTEA-NH2; disulfide 3-13) | < 100 nM |
| CC[C@H](C)[C@H](NC(C)=O)C(=O)N[C@H]1CSSC[C@@H](C(=O)N[C@H](C(=O)N[C@@H](CCC(=O)O)C(=O)NCC(=O)N[C@@H](CCCCNC(=O)CC[C@H](NC(=O)CCCCCCCCCCCCCCC(=O)O)C(=O)O)C(N)=O)[C@@H](C)O)NC(=O)[C@H](CCCNC(=N)N)NC(=O)[C@H](Cc2c[nH]cn2)NC(=O)[C@H](CCC(=O)O)NC(=O)CNC(=O)[C@H](Cc2c[nH]c3ccccc23)NC(=O)[C@H](CC(=O)O)NC(=O)[C@H](CCC(N)=O)NC(=O)[C@H](Cc2c[nH]c3ccccc23)NC(=O)[C@H]([C@@H](C)CC)NC1=O [Compound 92] (Ac-ICIWQDWGEHRCTEGK([γGlu-C16 diacid])-NH2; disulfide 2-12) | < 1000 nM |
| CC[C@H](C)[C@H](NC(C)=O)C(=O)N[C@H]1CSSC[C@@H](C(=O)N[C@H](C(=O)N[C@@H](CCC(=O)O)C(=O)NCC(=O)N[C@@H](CCCCNC(=O)COCCOCCNC(=O)COCCOCCNC(=O)CC[C@H](NC(=O)CCCCCCCCCCCCCCC(=O)O)C(=O)O)C(N)=O)[C@@H](C)O)NC(=O)[C@H](CCCNC(=N)N)NC(=O)[C@H](Cc2c[nH]cn2)NC(=O)[C@H](CCC(=O)O)NC(=O)CNC(=O)[C@H](Cc2c[nH]c3ccccc23)NC(=O)[C@H](CC(=O)O)NC(=O)[C@H](CCC(N)=O)NC(=O)[C@H](Cc2c[nH]c3ccccc23)NC(=O)[C@H]([C@@H](C)CC)NC1=O [Compound 93] (Ac-ICIWQDWGEHRCTEGK([AEEA-AEEA-γGlu-C16 diacid])-NH2; disulfide 2-12) | < 500 nM |
